From US12714721B2, “Methods of treatment of a cytokine storm” (Loma Linda University Health, priority 2020, dated 2026)
Entries after “also recorded” stand apart in the source; their conditions may differ.

Experiment: Serum IGF-I in LPS-treated mice after IGF-I in vivo gene therapy
Design: species or system mouse
Conditions: LPS 20 mg/kg i.p., 7-day study, IGF-I gene therapy i.m. one day prior to LPS
Method: AKI inflammation was associated with a decrease in serum IGF-I. This deficiency was rescued by expression of IGF-1. An in vivo gene therapy approach was utilized. A lentiviral vector engineered to express IGF-I was injected into skeletal muscle of the mice. Constant IGF-I production was designed because IGF binding protein 3, which normally binds to and stabilizes IGF-1 in serum, is expected to decrease. This decrease is due to liver growth receptor depression and therefore the free IGF-I, being a small molecule, is excreted in the urine. By using in vivo gene therapy approach, the free IGF-I is available to the sites of injury in the kidney.
In this 7-day study, there was a marked drop in serum IGF-I from 337.5 to 85 ng/mL (p<0.001), as a consequence of LPS therapy (20 mg/kg body weight). […] Under normal conditions, IGF-I circulates bound to IGFBP3. However, under the conditions of LPS administration, IGFBP3 would be expected to be low. Consequently, IGF-1 produced by muscle should circulate as free IGF-I, which would be readily accessible through the remaining intact vasculature to the injured kidney.
Experimental Design for IGF-1 and BTP-2 studies—The animal experiments involved B6 mice between 5-8 weeks of age. […]

IGF-I: Insulin-like Growth Factor, delivered by a lentiviral vector engineered to express IGF-I injected into skeletal muscle
serum IGF-I: normalized the low serum IGF-I; also recorded: rescued this deficiency | serum IGF-I (listed as Lenti-IGF-I): rescued the serum IGF-I deficiency
